From US10945962B2, “Controlled-release peptide compositions and uses thereof” (BOARD OF REGENTS OF THE UNIVERSITY OF NEBRASKA, priority 2011, dated 2021)
Square brackets hold non-standard residues; d marks the D form. Ends that are not written are not given here.

Assays:
[1] = system: MUC1 epitope; test: Immunization with MUC1/C5a agonist peptides, serum antibody responses (RIA, ELISA); format: in vivo; settings: 100 μg i.p. with RIBI adjuvant, three immunizations, Balb/c and C57B16 mice
From the text: Animal Models. The strains of mice used in the studies described in this Example were inbred 6- to 12-week-old C57B16(H-2b) and Balb/c ([…]) females obtained from Jackson Labs (Bar Harbor, Me.). […] The MUC1 peptide selected for these studies contained a motif that may bind to the H-2Kb molecule of the C57B16 mice. Therefore, a strain of mouse that lacked this class I molecule-binding motif (Balb/c) was also studied to determine the relative contribution of the class I-binding motif to the antigen presentation properties of these peptides.
Immunization Protocol. Preimmune sera were obtained from mice, which were subsequently immunized intraperitoneally with 100 μg of the indicated peptide with RIBI adjuvant (MPL+TDM+CWS) (Sigma Immunochemicals). Animals were boosted twice at two-week intervals using the same injection procedure. Sera were obtained following three immunizations (at 6 weeks).
Analysis of Serum Antibody Responses. For radioimmunoassay (RIA), anti-peptide antibodies were determined, before and at different time points after immunization, in 96-well microtiter plates (Dynatech Laboratories, Inc.). Plates were coated with 50 μl of a 100 μg/ml appropriate peptide in phosphate-buffered saline (PBS) pH 7.4 solution overnight at 4° C. The wells were blocked by incubation with 5% dry milk in PBS pH 7.4 for at least two hours. Anti-peptide antibody titers were determined using serial dilutions of sera. […] After washing, specific radioactivity was recorded in a gamma counter (1272 CliniGamma, LKB).
Anti-peptide antibody isotype titers were determined by enzyme-linked immunosorbent assay (ELISA) carried out in 96-well microtiter plates. […] Anti-peptide titers were determined using serial dilutions of sera. […] Again, the plates were washed 4 times with washing buffer and bound enzyme was detected by the addition of 50 μl 1 mg/ml p-nitrophenyl phosphate (Sigma) in 10% diethanolamine (Sigma) pH 9.4. The reaction was stopped by the addition of 50 μl of 0.5 M sodium hydroxide and absorbance values (A405) were determined using Titertek Multiskan (Flow Laboratories, Irvine, Scotland). […]

[2] = system: E. coli strain DHSα; test: Direct killing of bacteria, OD600 growth curves; format: cell-based; settings: added at OD600 0.2, 500 μg/m, LB or TSB
Protocol: E. coli strain DHSα was grown overnight in Lennox Broth (LB). This culture was diluted to an optical density at […] (OD600) of 0.06. The diluted E. coli was dispensed in 1.5 ml aliquots into separate tubes and 1.5 ml of EP67 ([…] ID NO: 4)), EP54 ([…] NO: 3)), scrambled-EP67 (s-EP67) or scrambled-EP54 in LB was added to obtain a final concentration of 500 μg/ml with the E. coli at an OD600 of 0.03. A culture in LB was also prepared. The cultures were incubated at 37° C. with shaking and the OD600 readings recorded hourly. In order to determine whether the growth media altered the effectiveness of EP67, LB was replaced with an alternative growth media, Tryptic Soy Broth (TSB). To test the efficacy of EP67 on bacteria growing in log phase, overnight cultures of DHSα were grown in either LB or TSB. […] DH5α control cultures (absence of additives) were also prepared. The tubes were further shaken at 37° C. and OD600 readings were taken hourly.

[3] = system: neutrophils; test: Neutrophil chemotaxis and myeloperoxidase assay, histopathology of injection site; format: in vivo, CD1 mice; settings: 250 μg s.c., no bacteria
Protocol: Neutrophil chemotaxis and myeloperoxidase assay. Neutrophil recruitment at the site of injection by EP67 or sEP67 was examined using an in vivo chemotaxis assay as described previously (van Sorge N M, et al., PLoS One 2008; 3:e2964). Briefly, 250 μg EP67 or sEP67 were injected subcutaneously into the right flank of CD1 mice. The injection was repeated after 24 h. Mice were euthanized 4 h after the second injection and the site of injection excised for histopathologic analysis or determination of myeloperoxidase (MPO) activity as described previously (van Sorge N M, et al., supra). The assay was carried out two times and the samples analyzed in duplicate.
Neutrophil influx is essential for the protective action of EP67. […] Neutrophil recruitment to the site of EP67 injection was further analyzed using an in vivo neutrophil recruitment assay as described previously (van Sorge N M, et al., supra; and Banerjee A, et al., Cell Microbiol; 12:1576-1588). Neutrophil migration was assessed in skin homogenates following injection of EP67 or sEP67 by determining the level of neutrophil enzyme myeloperoxidase (MPO), which serves as an effective indication of neutrophil infiltration (Banerjee A, et al., supra; and Bradley P P, et al., J Invest Dermatol 1982; 78:206-209). This method compares well with other in vivo assays of neutrophil chemotaxis (van Sorge N M, et al., supra).

Substance | antibody response to inoculation [1] | antibody response to inoculation ([1]; listed as MUC1 epitope conjugated to the C5a agonist peptide at its C-terminus) | effect on log phase growth (OD600) [2] | histopathologic analysis of skin tissue [3]
YSFKPMPLaRKQGGFLGL (YSFKPMPL[dA]RKQGGFLGL; listed as Homo sapiens) [peptide 4] | immune responses were not produced | no appreciable increase in antibody response | – | –
Tyr-Ser-Phe-Lys-Pro-Met-Pro-Leu-(D-Ala)-Arg (YSFKPMPL[dA]R) [EP54, C5a C-terminal decapeptide agonist analog] | no appreciable increase in antibody response | – | – | –
(MeL)RMYKPaFDS [sEP67, reference compound] | – | – | little or no effect on growth | normal pathology
